# Measurements published in patent publication EP0585371B1, “AROMATIC OLIGOMERIC COMPOUNDS USEFUL AS MIMICS OF BIOACTIVE MACROMOLECULES” (RHONE-POULENC RORER INTERNATIONAL (HOLDINGS) INC., priority 1991, dated 1992).
# Experiments:
# [1] = tested on: human fixed thrombin activated platelets; experiment: Platelet aggregation inhibition (fibrinogen-induced); format: cell-based; conditions: human fibrinogen added
# Experimental: The method for measuring platelet aggregation inhibition is essentially that of Ruggeri, et al., Proc. Natl. Acad. Sci. USA, 83, 5708-5712 (1986), using formalin-fixed platelets as prepared by Plow, et al., Proc. Natl. Acad. Sci. USA, 79, 3711-3715 (1982). A given amount of the compound of the present invention or other compound to be tested (10 to 100 µl of a 1 mg/ml solution) is incubated at 37°C with 400 µl of human fixed thrombin activated platelets for 2 minutes. 12.5 µl of human fibrinogen solution is added and aggregation is monitored using a platelet aggregation profiler (Model PAP-4). Controls consist of fibrinogen added to incubated platelets and the resulting aggregation is considered as 100%. Percent inhibition in the presence of a given concentration of test compound versus concentration of the compound is plotted and the concentration required to give 50% inhibition (IC50) is determined.
# [2] = target: T1, ESb mouse lymphoma heparanase (Mus musculus, UniProt Q6YGZ1); experiment: Inhibition of heparanase activity (degradation of labeled ECM heparan sulfate); format: biochemical; conditions: 24 hours incubation with labeled ECM
# T1 construct: endogenous in cells; host or cells: ESb mouse lymphoma cells
# T1 sequence (Q6YGZ1 28-535): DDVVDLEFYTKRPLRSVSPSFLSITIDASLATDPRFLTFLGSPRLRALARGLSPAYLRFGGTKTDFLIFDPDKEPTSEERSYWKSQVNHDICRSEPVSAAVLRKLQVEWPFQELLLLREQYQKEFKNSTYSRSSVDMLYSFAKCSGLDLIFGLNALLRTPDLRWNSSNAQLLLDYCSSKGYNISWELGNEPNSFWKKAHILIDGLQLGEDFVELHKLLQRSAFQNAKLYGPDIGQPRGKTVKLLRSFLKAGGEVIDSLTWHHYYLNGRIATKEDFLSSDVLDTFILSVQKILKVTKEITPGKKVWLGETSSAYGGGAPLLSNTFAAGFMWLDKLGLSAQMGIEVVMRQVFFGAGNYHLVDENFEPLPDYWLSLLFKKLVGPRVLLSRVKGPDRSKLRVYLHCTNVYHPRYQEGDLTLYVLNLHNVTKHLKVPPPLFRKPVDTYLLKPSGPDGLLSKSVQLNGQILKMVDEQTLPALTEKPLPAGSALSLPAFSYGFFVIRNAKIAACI
# Experimental: Heparanase is an endoglucuronidase capable of degrading […] (HS) at specific intrachain sites.
# The ability of compounds of the present invention to inhibit lymphomacell derived heparanase is tested in the assay system described by Vlodavsky et al., Cancer Research 43, 2704-2711 (1983). […] labeled ECM is incubated for 24 hours with ESb mouse lymphoma heparanase in the presence of various concentrations of the oligomers tested. Degradation of the HS is followed by gel filtration of the supematants. Heparanase activity is expressed as the total amount of labeled low-molecular-weight fragments released from the EMC substrate.
compound,measurement,setting,value
"Cc1cc(O)c(Cc2cc(O)c(Cc3cc(O)c(Cc4cc(O)c(Cc5cc(O)c(Cc6cc(O)c(Cc7cc(O)c(Cc8cc(O)ccc8CCC(=O)O)cc7CCC(=O)O)cc6CCC(=O)O)cc5CCC(=O)O)cc4CCC(=O)O)cc3CCC(=O)O)cc2CCC(=O)O)cc1CCC(=O)O [Ex 4, 5-[4-[4-[4-[4-[4-[4-[[2-(2-carboxyethyl)-5-hydroxy]benzyl]-[2-(2-carboxyethyl)-5-hydroxy]benzyl]-[2-(2-carboxyethyl)-5-hydroxy]benzyl]-[2-(2-carboxyethyl)-5-hydroxy]benzyl]-[2-(2-carboxyethyl)-5-hydroxy]benzyl]-[2-(2-carboxyethyl)-5-hydroxy]benzyl]-[2-(2-carboxyethyl)-5-hydroxy]benzyl]-4-hydroxy-2-methylhydrocinnamic acid]",Platelet Aggregation IC50,[1],>1000 µg/mL
same,% Inhibition of Heparanase Activity (5µg/ml),[2],2%
